Measurements published in ChEMBL document CHEMBL5365500, “Development and Antibacterial Properties of 4-[4-(Anilinomethyl)-3-phenylpyrazol-1-yl]benzoic Acid Derivatives as Fatty Acid Biosynthesis Inhibitors” (J Med Chem, 2023).
≈ marks a conversion by molar mass, not a printed value.

Tests used:
Assay type in all cases: functional
Conditions in all cases: time 20-24 hrs
[1] = system: Staphylococcus aureus; experiment: Antimicrobial activity against Staphylococcus aureus ATCC 25923 assessed as inhibition of visible growth measured after 20 to 24 hrs incubation by CLSI method
[2] = system: Staphylococcus aureus; experiment: Antimicrobial activity against antibiotic-resistant Staphylococcus aureus ATCC BAA-2312 assessed as inhibition of visible growth measured after 20 to 24 hrs incubation by CLSI method
[3] = system: Staphylococcus aureus; experiment: Antimicrobial activity against antibiotic-resistant Staphylococcus aureus ATCC 33591 assessed as inhibition of visible growth measured after 20 to 24 hrs incubation by CLSI method
[4] = system: Staphylococcus aureus; experiment: Antimicrobial activity against antibiotic-resistant Staphylococcus aureus ATCC 33592 assessed as inhibition of visible growth measured after 20 to 24 hrs incubation by CLSI method
[5] = system: Staphylococcus aureus; experiment: Antimicrobial activity against antibiotic-resistant Staphylococcus aureus ATCC 700699 assessed as inhibition of visible growth measured after 20 to 24 hrs incubation by CLSI method
[6] = system: Staphylococcus epidermidis; experiment: Antimicrobial activity against antibiotic-resistant Staphylococcus epidermidis ATCC 700296 assessed as inhibition of visible growth measured after 20 to 24 hrs incubation by CLSI method
[7] = system: Enterococcus faecalis; experiment: Antimicrobial activity against antibiotic-susceptible Enterococcus faecalis ATCC 29212 assessed as inhibition of visible growth measured after 20 to 24 hrs incubation by CLSI method
[8] = system: Enterococcus faecalis; experiment: Antimicrobial activity against antibiotic-resistant Enterococcus faecalis ATCC 51299 assessed as inhibition of visible growth measured after 20 to 24 hrs incubation by CLSI method
[9] = system: Enterococcus faecium; experiment: Antimicrobial activity against antibiotic-resistant Enterococcus faecium ATCC 700221 assessed as inhibition of visible growth measured after 20 to 24 hrs incubation by CLSI method
[10] = system: Bacillus subtilis; experiment: Antimicrobial activity against antibiotic-resistant Bacillus subtilis ATCC 6623 assessed as inhibition of visible growth measured after 20 to 24 hrs incubation by CLSI method

Row | SMILES | MIC [1] | MIC [2] | MIC [3] | MIC [4] | MIC [5] | MIC [6] | MIC [7] | MIC [8] | MIC [9] | MIC [10]
1 | O=C(O)c1ccc(-n2cc(CNc3cccc(C(F)(F)F)c3)c(-c3ccc(F)cc3)n2)cc1 | 8 µg/mL (≈ 17.6 µM) | 4 µg/mL (≈ 8.78 µM) | 2 µg/mL (≈ 4.39 µM) | 8 µg/mL (≈ 17.6 µM) | 4 µg/mL (≈ 8.78 µM) | 8 µg/mL (≈ 17.6 µM) | 16 µg/mL (≈ 35.1 µM) | 16 µg/mL (≈ 35.1 µM) | 8 µg/mL (≈ 17.6 µM) | 2 µg/mL (≈ 4.39 µM)
2 | O=C(O)c1ccc(-n2cc(CNc3cccc(F)c3)c(-c3ccc(F)cc3)n2)cc1 | 16 µg/mL (≈ 39.5 µM) | 32 µg/mL (≈ 78.9 µM) | 16 µg/mL (≈ 39.5 µM) | 16 µg/mL (≈ 39.5 µM) | 16 µg/mL (≈ 39.5 µM) | 32 µg/mL (≈ 78.9 µM) | > 32 µg/mL | > 32 µg/mL | > 32 µg/mL | 8 µg/mL (≈ 19.7 µM)
3 | O=C(O)c1ccc(-n2cc(CNc3ccc(Oc4ccccc4)cc3)c(-c3ccc(F)cc3)n2)cc1 | 2 µg/mL (≈ 4.17 µM) | 2 µg/mL (≈ 4.17 µM) | 1 µg/mL (≈ 2.09 µM) | 4 µg/mL (≈ 8.34 µM) | 2 µg/mL (≈ 4.17 µM) | 4 µg/mL (≈ 8.34 µM) | 8 µg/mL (≈ 16.7 µM) | 4 µg/mL (≈ 8.34 µM) | 4 µg/mL (≈ 8.34 µM) | 2 µg/mL (≈ 4.17 µM)
4 | Cc1cc(NCc2cn(-c3ccc(C(=O)O)cc3)nc2-c2ccc(F)cc2)ccc1F | 16 µg/mL (≈ 38.1 µM) | 16 µg/mL (≈ 38.1 µM) | 8 µg/mL (≈ 19.1 µM) | 16 µg/mL (≈ 38.1 µM) | 8 µg/mL (≈ 19.1 µM) | 32 µg/mL (≈ 76.3 µM) | > 32 µg/mL | > 32 µg/mL | > 32 µg/mL | 4 µg/mL (≈ 9.54 µM)
5 | O=C(O)c1ccc(-n2cc(CNc3ccc(F)cc3)c(-c3ccc(F)c(F)c3)n2)cc1 | > 32 µg/mL | > 32 µg/mL | > 32 µg/mL | > 32 µg/mL | > 32 µg/mL | > 32 µg/mL | > 32 µg/mL | > 32 µg/mL | > 32 µg/mL | > 32 µg/mL
6 | O=C(O)c1ccc(-n2cc(CNc3ccc(Br)cc3)c(-c3ccc(F)cc3)n2)cc1 | 8 µg/mL (≈ 17.2 µM) | 16 µg/mL (≈ 34.3 µM) | 4 µg/mL (≈ 8.58 µM) | > 32 µg/mL | 16 µg/mL (≈ 34.3 µM) | > 32 µg/mL | > 32 µg/mL | > 32 µg/mL | > 32 µg/mL | 4 µg/mL (≈ 8.58 µM)
7 | O=C(O)c1ccc(-n2cc(CNc3cc(F)cc(C(F)(F)F)c3)c(-c3ccc(F)cc3)n2)cc1 | 2 µg/mL (≈ 4.22 µM) | 2 µg/mL (≈ 4.22 µM) | 2 µg/mL (≈ 4.22 µM) | 4 µg/mL (≈ 8.45 µM) | 2 µg/mL (≈ 4.22 µM) | 4 µg/mL (≈ 8.45 µM) | 16 µg/mL (≈ 33.8 µM) | 16 µg/mL (≈ 33.8 µM) | 8 µg/mL (≈ 16.9 µM) | 4 µg/mL (≈ 8.45 µM)
8 | O=C(O)c1ccc(-n2cc(CNc3cc(F)cc(C(F)(F)F)c3)c(-c3ccc(F)c(F)c3)n2)cc1 | 2 µg/mL (≈ 4.07 µM) | 2 µg/mL (≈ 4.07 µM) | 1 µg/mL (≈ 2.04 µM) | 1 µg/mL (≈ 2.04 µM) | 2 µg/mL (≈ 4.07 µM) | 4 µg/mL (≈ 8.14 µM) | 8 µg/mL (≈ 16.3 µM) | 8 µg/mL (≈ 16.3 µM) | 4 µg/mL (≈ 8.14 µM) | 1 µg/mL (≈ 2.04 µM)
9 | Cc1cc(NCc2cn(-c3ccc(C(=O)O)cc3)nc2-c2ccc(F)cc2)ccc1Br | 4 µg/mL (≈ 8.33 µM) | 2 µg/mL (≈ 4.16 µM) | 2 µg/mL (≈ 4.16 µM) | 4 µg/mL (≈ 8.33 µM) | 2 µg/mL (≈ 4.16 µM) | 4 µg/mL (≈ 8.33 µM) | 16 µg/mL (≈ 33.3 µM) | 8 µg/mL (≈ 16.7 µM) | 8 µg/mL (≈ 16.7 µM) | 1 µg/mL (≈ 2.08 µM)
10 | O=C(O)c1ccc(-n2cc(CNc3ccc(Br)cc3)c(-c3cccc(F)c3)n2)cc1 | 4 µg/mL (≈ 8.58 µM) | 8 µg/mL (≈ 17.2 µM) | 4 µg/mL (≈ 8.58 µM) | 16 µg/mL (≈ 34.3 µM) | 16 µg/mL (≈ 34.3 µM) | 16 µg/mL (≈ 34.3 µM) | 32 µg/mL (≈ 68.6 µM) | 32 µg/mL (≈ 68.6 µM) | 16 µg/mL (≈ 34.3 µM) | 4 µg/mL (≈ 8.58 µM)
11 | O=C(O)c1ccc(-n2cc(CNc3cc(Cl)cc(Cl)c3)c(-c3cccc(F)c3)n2)cc1 | 2 µg/mL (≈ 4.38 µM) | 1 µg/mL (≈ 2.19 µM) | 1 µg/mL (≈ 2.19 µM) | 1 µg/mL (≈ 2.19 µM) | 4 µg/mL (≈ 8.77 µM) |  | 8 µg/mL (≈ 17.5 µM) |  |  | 1 µg/mL (≈ 2.19 µM)
